Experimental data taken from patent US7205409B2, “Pharmaceutical compositions as inhibitors of dipeptidyl peptidase-IV (DPP-IV)” (Abbott Laboratories, priority 2003, dated 2007).

How the values were obtained:
[1] = Chemical Stability Assay (HPLC, phosphate buffer pH 7.4, 37° C.); assay type: physicochemical; settings: stability to internal cyclization, read-out: chemical stability half-life (T1/2) (converted)
Description: For the determination of chemical stability, compounds of the present invention are assayed using the following protocol:
A solution of each DPP-IV compound was prepared in an appropriate mobile phase. This was injected and analyzed by HPLC to identify the parent drug peak in the chromatograms. Stability solutions were prepared in 50 mM phosphate buffer pH 7.4 adjusted to μ=0.155. Samples were weighed using a Mettler-Toledo microbalance and transferred into a 20 ml glass scintillation vial or a volumetric flask. The phosphate buffer pH 7.4 was added with an EDP Plus 10 ml electronic pipette. The samples were sonicated for approximately 2 minutes and filtered using a PTFE membrane syringe filter. The filtrate was transferred to amber HPLC vials and placed in an autosampler at 37° C. The first sample was immediately injected and counted as the time zero sample. The solution concentration was measured at various timepoints using an appropriate HPLC method. After data acquisition was completed, the chromatograms were processed for each compound. The rate and half-life were determined from a plot of log10 peak area remaining/peak area at zero time vs. exposure time @37° C. using Microsoft® Excel 2000. Rates of reaction and half-lives were calculated using a pseudo-first order kinetic model.

[2] = system: Insulin resistant female ZDF rats; experiment: acute oral glucose tolerance test (OGTT); assay type: in vivo, rat; settings: OGTT 2 gm/kg four hours later
Description: Compounds of the present invention are evaluated for the ability to treat diabetes using an acute oral glucose tolerance test (OGTT) as follows: Insulin resistant female ZDF rats, 11 weeks of age, on a normal chow diet, are fasted overnight. A baseline tail snip blood sample is taken to measure glucose levels (Precision PCx glucose meter, Abbott Laboratories, Abbott Park, Ill.) at the beginning of the experiment. Immediately after this baseline sample, compounds of the present invention (or placebo) are dosed orally. Four hours later, a tail snip blood glucose measurement is taken, immediately followed by an oral glucose dose (OGTT, 2 gm/kg). The glucose excursion is followed for 2 hr with samples taken at 10, 20, 30, 60 and 120 min post OGTT. These timed glucose data are used to construct a glucose excursion curve, from which an area under the glucose curve (AUGC) is determined. Data are reported as the baseline-adjusted area under the glucose curve (deltaAUGC) for drug and control groups.

| half-life [1] [h] | SMILES | δ AUGC ([2]; 1.0 mg/kg oral) | δ AUGC, change versus control ([2]; 1.0 mg/kg oral) [%] | δ AUGC ([2]; 3.0 mg/kg oral) | δ AUGC, change versus control ([2]; 3.0 mg/kg oral) [%] |
| --- | --- | --- | --- | --- | --- |
| 5.3 | C[C@H]1CC[C@@H](C(=O)N2CCC[C@H]2C#N)N1 [Comparative compound α] | – | – | – | – |
| 12.2 | N#C[C@@H]1CCCN1C(=O)[C@@H]1CC[C@H](c2ccccc2)N1 [Comparative compound γ] | – | – | – | – |
| – | N#C[C@@H]1CCCN1C(=O)[C@@H]1CC[C@H](COc2ccc(C(=O)O)c3ccccc23)N1 [Example 54, (2S)-1-{(5R)-5-((4-carboxynaphthalen-1-yloxy)methyl)-L-prolyl}-pyrrolidine-2-carbonitrile] | 7,600 mg/mL/dL | −24 | 7,300 mg/mL/dL | −27 |
